Where “and” joins values, the source holds several entries; their conditions need not be identical. Equal entries are not always repeated. Where two headings read alike, the source gives them in different places.
Legend:
[1] = test system: methicillin-sensitive S. aureus ATCC 29213 (MSSA); assay: microbe, parasite or virus in culture; conditions: Table S1; for IC50: read-out: IC50 MSSA
Experimental: (§1) MRSA strain ATCC 43300 and MSSA strain S. aureus ATCC 29213 were grown on Tryptic Soy Agar (TSA) plates. Before use, an isolated colony was transferred from the TSA plate into Tryptic Soy Broth (TSB) and incubated 18–24 h in a humidified incubator at 37 °C. To adjust for a standard concentration of bacteria, the turbidity of the culture was measured at 600 nm, and its optical density (OD600) adjusted to be in the range 0.08–0.12 which equates to a concentration of approximately 1 × 10^8 CFU/mL. This suspension was diluted 1:20 in TSB. […] MRSA strain S. aureus ATCC 43300 and MSSA strain S. aureus ATCC 29213 were used for all testing in this study.
(§2) The assay for anti-Staphylococcal activity of AT compounds was prepared in 96-well transparent, U-bottom plates. A series of 2-fold dilutions of AT concentrations was tested in triplicate, with each well containing 10 µL of prepared bacterium and 90 µL of AT mixture in CAMHB. […] Blank wells with only CAMHB, a negative control well with 10 µL of bacterium solution mixed into 90 µL CAMHB, a vehicle control well with bacteria mixed into 1% DMSO in CAMBH, and a positive cell death control with vancomycin (1 µL of stock 2 mg/mL solution in 89 µL CAMHB with 10 µL of bacteria) were included. The plate was incubated for 18–24 h at 37 °C in a humidified incubator. Before measurement, PrestoBlue^TM dye (Invitrogen, Carlsbad, CA, USA) was added (10 µL per well) and incubated for 1 h with aluminum foil covering the plate. A CLARIOstar® (BMG LABTECH, Cary, NC, USA) multi-mode plate reader was used to measure the fluorescence at wavelengths of 560 nm for excitation and 590 nm for emission. Inhibitory concentration (IC50) values were defined as half inhibitory concentration and were computed using GraphPad Prism version 9.1 software.

[2] = test system: methicillin-resistant S. aureus ATCC 43300 (MRSA); assay: Antibacterial assay (broth microdilution, PrestoBlue); type: cell-based, Staphylococcus aureus; conditions: for MRSA inhibition (100µM) / IC50: Table S1; for IC50: read-out: IC50 MRSA
Experimental: as §1, §2

[3] = test system: HepG2 (ATCC HB-8065) cells; assay: Cytotoxicity assay (PrestoBlue); type: cell-based, Human
HeLa (ATCC CCL-2) cells = assay: Cytotoxicity assay (PrestoBlue)
Experimental: Human HeLa epithelial (ATCC CCL-2) and HepG2 liver epithelial (ATCC HB-8065) cell lines were used to determine toxicity of AT compounds for mammalian cells. The cells were grown in a complete culture medium of RPMI 1640 with 10% heat-inactivated fetal bovine serum (FBS) at 37 °C in 5% CO2 (95% room air) in a humidified incubator. Before use, attached cell monolayers, which had reached at least 90% confluency, were detached by trypsinization with trypsin-EDTA (0.25%) and resuspension in fresh complete culture media. For experiments, the stock concentration of 1 × 10^5 cells/mL (to achieve a final 1 × 10^4 cells/well concentration) was achieved by counting the trypsinized cells and adjusting to their final concentration for assays.
HeLa or HepG2 cells were pre-seeded into a 96-well transparent, flat bottom plate by adding a volume of 100 µL stock cell concentration (1 × 10^5 cells/mL) in complete culture media to each well. The plate was incubated overnight at 37 °C in a 5% CO2 (95% room air) humidified incubator. After the incubation and before mixing in the AT compounds, a 100 µL volume of fresh complete culture media was added to the pre-seeded wells. The 2-fold dilutions of AT compounds in triplicates were prepared on a separate 96-well plate. Once the dilution plate was prepared, dilutions were transferred into the pre-seeded plate to achieve the same concentrations of ATs as for the inhibition assay described above. The final inoculated plate was then returned to the 5% CO2 (95% room air) humidified incubator for an additional 24 h of incubation with the diluted ATs. Controls were blank wells containing only media, wells with cells and DMSO in complete culture media, and wells with cells and complete culture media only. Measurement of toxicity was analogous to the inhibition assay except that 20 µL of PrestoBlue^TM was used and the incubation was 3–6 h before reading with the plate-reader. Cytotoxicity concentration (CC50) was defined as the concentration where half of the cells remained viable and was computed using GraphPad Prism.

| SMILES | MSSA inhibition (100µM) [1] | MRSA inhibition (100µM) [2] | also measured |
| --- | --- | --- | --- |
| N#Cc1ccc(-c2n[nH]nc2C(=O)c2cccc(Cl)c2O)cc1 [AT119] | 64.36% | 46.21% | – |
| O=C(c1ccccc1O)c1n[nH]nc1-c1ccsc1 [AT134] | 10.83% | 0% | – |
| Cc1ccc(O)c(C(=O)c2n[nH]nc2-c2cccc([N+](=O)[O-])c2)c1 [AT131] | 21.31% | 0% | – |
| Cc1ccc(-c2n[nH]nc2C(=O)c2cc(C)c(C)cc2O)cc1 [AT133] | 88.47% | 58.84% | – |
| Cc1cccc(C(=O)c2n[nH]nc2-c2cccc([N+](=O)[O-])c2)c1O [AT132] | 83.03% | 57.99% | – |
| O=C(c1ccccc1O)c1n[nH]nc1-c1cccc(Cl)c1 [AT107] | 50.24% | 56.47% | – |
| N#Cc1ccc(-c2n[nH]nc2C(=O)c2c(O)cccc2Cl)cc1 [AT122] | 1.01% | 18.51% | – |
| N#Cc1ccc(-c2n[nH]nc2C(=O)c2cccc(Br)c2O)cc1 [AT124] | 43.36% | 32.16% | IC50 [2]: 13.4 µM; CC50 [3]: 3.85 µM |
| O=C(c1ccccc1O)c1n[nH]nc1-c1ccc([N+](=O)[O-])cc1 [AT103] | 81.57% | 88.53% | IC50 [2]: 3.98 µM; CC50 [3]: 2.65 µM |
| O=C(c1ccccc1O)c1n[nH]nc1-c1cccs1 [AT135] | 46.76% | 5.42% | decrease of anti-MRSA activity ([2]; compared with AT137 (no bromine on the thiophene ring)): over 15 fold |
| Cc1ccc(-c2n[nH]nc2C(=O)c2cccc(Cl)c2O)cc1 [AT123] | 99.45% | 23.62% | IC50 [1]: 12.5 µM; IC50 [2]: 31.2 µM; CC50 [3]: 58.7 µM; CC50 (HeLa (ATCC CCL-2) cells; read-out: CC50 HeLa, Table S1): 14.4 µM |
| O=C(c1ccccc1O)c1n[nH]nc1-c1cccc([N+](=O)[O-])c1 [AT104] | – | 48.19% | – |
| N#Cc1ccc(-c2n[nH]nc2C(=O)c2ccccc2O)cc1 [AT100] | 58.77% | 96.47% and > 96% | IC50 [2]: 38.8 µM; CC50 [3]: 70.7 µM; CC50 (HeLa (ATCC CCL-2) cells; read-out: CC50 HeLa, Table S1): 19.1 µM |
| CC(=O)Nc1ccc(-c2n[nH]nc2C(=O)c2ccccc2O)cc1 [AT136] | 0% | 0% | – |
| O=C(c1ccccc1O)c1n[nH]nc1-c1ccccc1Cl [AT108] | 30.63% | 8.46% | – |
| O=C(c1ccccc1O)c1n[nH]nc1-c1ccc(O)cc1 [AT117] | 0% | 19.39% | – |
| O=C(c1ccccc1O)c1n[nH]nc1-c1ccc(I)cc1 [AT113] | 85.79% | 43.81% | – |
| N#Cc1ccccc1-c1n[nH]nc1C(=O)c1ccccc1O [AT102] | 0% | 35.77% | – |
| N#Cc1ccc(-c2n[nH]nc2C(=O)c2ccc(Cl)cc2O)cc1 [AT120] | 71.82% | 99.51% | IC50 [1]: 6.03 µM; IC50 [2]: 4.18 µM; CC50 [3]: 38.1 µM; CC50 (HeLa (ATCC CCL-2) cells): 17.2 µM |
| N#Cc1ccc(-c2n[nH]nc2C(=O)c2cc(F)ccc2O)cc1 [AT126] | 64.72% | 75.06% | – |
| Cc1cc(O)c(C(=O)c2n[nH]nc2-c2cccc([N+](=O)[O-])c2)cc1C [AT130] | 58.75% | 43.97% | – |
